Results: patent US20200131249A1, “NOVEL PROTEINS AND USE THEREOF” (EVOLVERITAS KFT., priority 2017, published 2020)
Where no end group is shown, it is not given here.

What was measured:
extrinsic pathway = assay: Prothrombin time (PT) in human plasma
Method: (§1) Blood coagulation measurements using blood plasma taken from healthy human individuals were also performed. From the blood obtained through venipuncture and treated with sodium citrate (3.8% wt/vol) the plasma was isolated by centrifugation (2,000 g, 15 minutes, Jouan CR412 centrifuge).
(§2) The effect of the protein variants of the present invention on the blood coagulation process was tested in three standard assays, the thrombin time, testing any direct effects on thrombin; prothrombin time, testing any effects on the extrinsic pathway; and the activated partial thromboplastin time, testing any effects on the intrinsic pathway. Blood was collected from a healthy individual by vein puncture after informed consent. The blood was treated with sodium-citrate (3.8% w/v) and centrifuged. All three assays were performed on the automated instrument Sysmex CA-1500 (Sysmex) with Innovin reagent (Dale Behring, Marburg, Germany).
(§3) The inhibitors were applied in a fivefold serial dilution with the highest final concentration being 36 μM. This value is 3-4 orders of magnitudes higher than the KI values of the three protein variants of the present invention on human MASP-2. Even at the highest concentration the protein variants of the present invention have only little effect in the APTT test and no effect in the PT and TT tests.

intrinsic pathway = assay: Activated partial thromboplastin time (APTT) in human plasma
Method: as §1, §2, §3

human MASP-3 = molecular target: T1, human MASP-3 (Homo sapiens, UniProt P48740); assay: KI determination on human MASP-3 catalytic fragment; format: biochemical; settings: for Ki: catalytic fragment, Z-L-Lys-SBzl
T1 construct: catalytic enzyme fragments containing the three C-terminal domains: CCP1-CCP2-SP
T1 sequence (P48740 450-728 isoform P48740-2 limits assumed): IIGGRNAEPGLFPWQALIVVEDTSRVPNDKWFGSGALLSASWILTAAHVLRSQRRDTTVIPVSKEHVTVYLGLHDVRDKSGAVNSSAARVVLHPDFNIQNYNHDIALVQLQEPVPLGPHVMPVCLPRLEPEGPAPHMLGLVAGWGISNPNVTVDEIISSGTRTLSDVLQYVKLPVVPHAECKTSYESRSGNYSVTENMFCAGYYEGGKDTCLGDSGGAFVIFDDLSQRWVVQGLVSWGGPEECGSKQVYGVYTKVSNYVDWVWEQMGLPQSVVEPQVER
Method: (§4) The inhibition equilibrium constant (KI) of all four inhibitor variants produced was measured on human MASP-2 and rat MASP-2. Additionally, KI values were measured also on human MASP-1 and human MASP-3 to assess the specificity of the inhibitors amongst the MASP enzymes. KI values of the inhibitors on bovine trypsin, a pancreatic model enzyme was also measured.
(§5) For determining the KI of the inhibitors on MASP enzymes we used catalytic enzyme fragments containing the three C-terminal domains: CCP1-CCP2-SP. The synthetic substrate used in the measurements was Z-L-Lys-SBzl hydrochloride (Sigma, C3647), from which a 10 mM stock solution was prepared. The reactions were performed in a volume of 0.2 ml at room temperature in a buffer consisting of 20 mM HEPES; 145 mM NaCl; 5 mM CaCl2; 0.05% Triton-X100. The substrate cleaved by the enzyme entered into a reaction with the 5,5′-Dithiobis(2-nitrobenzoic acid) (DTNB, Ellman's reagent, Sigma—D8130) auxiliary substrate present in the solution in 2-fold excess to Z-L-Lys-SBzl. The release of the chromophore group created in this way was monitored via the change of absorbance at 410 nm using a BioTek Synergy H4 multimode microplate reader.
(§6) A dilution sequence was prepared from the individual inhibitors, the enzyme was added to it, and it was incubated for 2 hours at room temperature. The samples were transferred on a 96-well microtiter plate (Nunc 269620). The reactions were started by adding the mixture of the substrate and the auxiliary substrate to the samples. The concentration of the substrate and the length of the measuring period were chosen so that under the given conditions the enzyme should consume less than 10% of the substrate. In this case we used 250 μM Z-L-Lys-SBzl and 500 μM DTNB in the reactions. In the course of measuring, a method developed for the characterisation of tight-binding inhibitors was used (Empie, 1982). The concentration of the product was measured as a function of reaction time. The slope of the straight line determined for the initial phase of the reaction was normalised with the slope obtained for the uninhibited enzyme reaction, and this value was multiplied with the total enzyme concentration. As a result of this we obtained the free enzyme concentration, which was plotted as a function of the total inhibitor concentration and the Ki value was determined according to the following equation:
(§7) E=y=E0−(E0+x+Ki−(((E0+x+Ki)^2)−4*E0*x)^(½))/2,
(§8) where E is the free (uninhibited) enzyme concentration, and E0 is the total enzyme concentration. The stock concentration of the inhibitors was determined by titration with bovine trypsin of known concentration. The results were calculated as the average of parallel measurements.

human MASP-1 = molecular target: T2, human MASP-1 (Homo sapiens, UniProt P48740); assay: KI determination on human MASP-1 catalytic fragment; format: biochemical; set-up: key to KI on human MASP-1: N.E.: not effective; settings: for KI on human MASP-1: catalytic fragment, Z-L-Lys-SBzl
T2 construct: catalytic enzyme fragments containing the three C-terminal domains: CCP1-CCP2-SP
T2 sequence (P48740 449-699 limits assumed): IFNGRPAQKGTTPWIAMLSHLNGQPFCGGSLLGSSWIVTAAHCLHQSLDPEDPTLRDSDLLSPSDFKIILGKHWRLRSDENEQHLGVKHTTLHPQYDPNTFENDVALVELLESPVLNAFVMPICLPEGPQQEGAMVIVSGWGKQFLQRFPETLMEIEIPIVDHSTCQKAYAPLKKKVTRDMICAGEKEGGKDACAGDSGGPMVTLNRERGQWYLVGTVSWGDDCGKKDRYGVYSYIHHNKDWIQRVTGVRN
T2 sequence (P48740 298-448 partner limits assumed): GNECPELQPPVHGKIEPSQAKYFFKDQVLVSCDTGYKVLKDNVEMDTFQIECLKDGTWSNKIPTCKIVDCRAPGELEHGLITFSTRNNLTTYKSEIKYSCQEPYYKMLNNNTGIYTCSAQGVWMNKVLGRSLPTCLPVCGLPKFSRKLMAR
Method: as §4, §5, §6, §7, §8

thrombin = assay: Thrombin time (TT) in human plasma
Method: as §1, §2, §3

MASP-2 = MASP-2 (Homo sapiens, UniProt O00187); set-up: host or cells: diluted serum; settings: Wouters 2011; Keizer 2015; read-out: IC50 of MASP-2 inhibition in solid phase ELISA assay with diluted serum; cited from earlier work
porcine trypsin = porcine trypsin (Sus scrofa, UniProt P00761); settings: Petersen 1996; read-out: KI towards porcine trypsin; cited from earlier work
rat MASP-2 = molecular target: T3, rat MASP-2 (Rattus norvegicus, UniProt Q9JJS8); assay: KI determination on rat MASP-2 catalytic fragment; format: biochemical; settings: KI ratio
T3 construct: made in house
Method: as §4
For determining the KI of the inhibitors on MASP enzymes we used catalytic enzyme fragments containing the three C-terminal domains: CCP1-CCP2-SP. The synthetic substrate used in the measurements was Z-L-Lys-SBzl hydrochloride (Sigma, C3647), from which a 10 mM stock solution was prepared. […] The release of the chromophore group created in this way was monitored via the change of absorbance at 410 nm using a BioTek Synergy H4 multimode microplate reader.
A dilution sequence was prepared from the individual inhibitors, the enzyme was added to it, and it was incubated for 2 hours at room temperature. […] The concentration of the product was measured as a function of reaction time. The slope of the straight line determined for the initial phase of the reaction was normalised with the slope obtained for the uninhibited enzyme reaction, and this value was multiplied with the total enzyme concentration. […]

porcine trypsin, sequence (P00761 9-231): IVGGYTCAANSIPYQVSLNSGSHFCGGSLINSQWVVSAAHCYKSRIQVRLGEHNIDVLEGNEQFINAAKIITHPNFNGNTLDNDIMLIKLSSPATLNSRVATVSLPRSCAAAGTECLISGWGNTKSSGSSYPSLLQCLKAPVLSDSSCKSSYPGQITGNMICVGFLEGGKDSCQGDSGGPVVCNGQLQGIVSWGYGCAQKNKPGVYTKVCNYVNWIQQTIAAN
T3 sequence (Q9JJS8 with tags, fused parts or gaps L506P/I507H/R622A): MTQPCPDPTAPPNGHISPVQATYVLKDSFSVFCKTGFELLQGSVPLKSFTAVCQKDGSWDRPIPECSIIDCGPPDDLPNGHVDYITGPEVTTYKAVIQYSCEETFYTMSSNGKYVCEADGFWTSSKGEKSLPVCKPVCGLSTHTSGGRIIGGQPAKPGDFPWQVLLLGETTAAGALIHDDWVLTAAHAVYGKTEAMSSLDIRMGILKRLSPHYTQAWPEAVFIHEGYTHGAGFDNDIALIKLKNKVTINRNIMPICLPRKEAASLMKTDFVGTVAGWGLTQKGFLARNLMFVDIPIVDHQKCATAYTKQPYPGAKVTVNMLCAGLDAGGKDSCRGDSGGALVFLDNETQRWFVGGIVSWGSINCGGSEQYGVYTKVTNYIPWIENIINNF
MASP-2, sequence (O00187 16-686, species assumed): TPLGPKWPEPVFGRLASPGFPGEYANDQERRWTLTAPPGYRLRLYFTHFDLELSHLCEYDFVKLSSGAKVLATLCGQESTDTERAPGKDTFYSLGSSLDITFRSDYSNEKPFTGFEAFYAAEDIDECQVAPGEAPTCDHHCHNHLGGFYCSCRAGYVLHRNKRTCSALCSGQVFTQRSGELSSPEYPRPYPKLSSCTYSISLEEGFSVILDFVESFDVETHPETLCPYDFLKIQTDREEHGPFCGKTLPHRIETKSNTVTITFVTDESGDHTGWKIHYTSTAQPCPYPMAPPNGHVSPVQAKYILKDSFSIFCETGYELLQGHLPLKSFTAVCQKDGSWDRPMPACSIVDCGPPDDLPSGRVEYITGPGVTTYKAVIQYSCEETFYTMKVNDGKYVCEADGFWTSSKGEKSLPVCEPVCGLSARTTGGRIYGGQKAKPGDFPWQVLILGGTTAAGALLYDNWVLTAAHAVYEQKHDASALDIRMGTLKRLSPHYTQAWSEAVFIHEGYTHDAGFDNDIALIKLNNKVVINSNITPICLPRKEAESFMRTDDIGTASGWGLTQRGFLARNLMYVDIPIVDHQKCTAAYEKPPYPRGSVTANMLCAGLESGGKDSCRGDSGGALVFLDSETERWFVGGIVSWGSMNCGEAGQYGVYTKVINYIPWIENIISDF

Ki (human MASP-3)	KI on human MASP-1 (human MASP-1)	Substance	PT (extrinsic pathway; inhibitor 0.1 μM)	PT (extrinsic pathway; inhibitor 0.3 μM)	PT (extrinsic pathway; inhibitor 1.4 μM)	PT (extrinsic pathway; inhibitor 7.2 μM)	PT (extrinsic pathway; inhibitor 36.0 μM)	APTT (intrinsic pathway; inhibitor 0.1 μM)	APTT (intrinsic pathway; inhibitor 0.3 μM)	APTT (intrinsic pathway; inhibitor 1.4 μM)	APTT (intrinsic pathway; inhibitor 7.2 μM)	APTT (intrinsic pathway; inhibitor 36.0 μM)	TT (thrombin; inhibitor 0.1 μM)	TT (thrombin; inhibitor 0.3 μM)	TT (thrombin; inhibitor 1.4 μM)	TT (thrombin; inhibitor 7.2 μM)	TT (thrombin; inhibitor 36.0 μM)	also measured
> 30 µM	N.E.	SEQ ID NO: 11: TFPI-D2 variant protein with inhibitor loop FCRAVKR (SEQ ID NO: 1) (KPDFCFLEEDPGFCRAVKRRYFYNNQTKQCERFKYGGCLGNMNNFETLEECKNICEDG; ends and bridges not checked; cysteine pairing not given here)	10.7 s	10.8 s	11.0 s	11.0 s	11.4 s	36.3 s	36.5 s	37.0 s	39.3 s	46.0 s	16.5 s	16.6 s	16.7 s	16.4 s	16.0 s	–
> 30 µM	N.E.	TFPI-D2 [reference compound]	–	–	–	–	–	–	–	–	–	–	–	–	–	–	–	inhibition of MASP-3 (human MASP-3; result in words): No considerable inhibition; inhibition of MASP-1 (human MASP-1; result in words): No considerable inhibition; IC50 (MASP-2): 10 µM; Ki (porcine trypsin): 0.0001 µM
> 30 µM	N.E.	SEQ ID NO: 17: TFPI-D2 variant protein with inhibitor loop VCRAVKR (SEQ ID NO: 7) (KPDFCFLEEDPGVCRAVKRRYFYNNQTKQCERFKYGGCLGNMNNFETLEECKNICEDG; ends and bridges not checked; cysteine pairing not given here)	10.8 s	10.8 s	10.8 s	10.9 s	11.4 s	36.8 s	37.2 s	38.1 s	40.6 s	47.4 s	16.6 s	16.3 s	16.4 s	16.4 s	16.0 s	fold more potent than SGMI-2 on rat MASP-2 (rat MASP-2): about 3 fold
